From patent publication US7279497B2, “Benzopyran derivatives substituted with secondary amines including imidazole, their preparation and pharmaceutical compositions containing them” (Korea Research Institute of Chemical Technology, priority 2002, dated 2007)

Each molecule was assayed on SPF SD rats (assay: not given). Details: rat, in vivo, po.
For `COC(OC)[C@@]1(C)Oc2ccc(N)cc2[C@@H](N(Cc2ncc[nH]2)c2ccc(C)cc2C)[C@@H]1O` [Example 33, (2S,3S,4R)-6-amino-3,4-dihydro-2-dimethoxymethyl-3-hydroxy-2-methyl-4-[N-(2,4-dimethylphenyl)-N-(1H-imidazol-2-ylmethyl)amino]-2H-1-benzopyran], the “clinical symptoms, body weight and mortality” value (from here on “clinical symptoms”) was “no significant changes”.
For `COC(OC)[C@@]1(C)Oc2ccc([N+](=O)[O-])cc2[C@@H](N(Cc2ncc[nH]2)c2cccc(C)c2C)[C@@H]1O` [Example 11, (2S,3S,4R)-3,4-dihydro-2-dimethoxymethyl-3-hydroxy-2-methyl-6-nitro-4-[N-(2,3-dimethylphenyl)-N-(1H-imidazol-2-ylmethyl)amino]-2H-1-benzopyran], the “clinical symptoms” value was “no significant changes”.
With `COC(OC)[C@]1(C)Oc2ccc([N+](=O)[O-])cc2[C@H](N(Cc2ncc[nH]2)c2ccccc2C(C)C)[C@H]1O` [Example 17, (2R,3R,4S)-3,4-dihydro-2-dimethoxymethyl-3-hydroxy-2-methyl-6-nitro-4-[N-(2-isopropylphenyl)-N-(1H-imidazol-2-ylmethyl)amino]-2H-1-benzopyran] the “clinical symptoms” value was “no significant changes”.
In the case of `COC(OC)[C@]1(C)Oc2ccc([N+](=O)[O-])cc2[C@H](N(Cc2ncc[nH]2)c2ccc(OC(F)(F)F)cc2)[C@H]1O` [Example 21, (2R,3R,4S)-3,4-dihydro-2-dimethoxymethyl-3-hydroxy-2-methyl-6-nitro-4-[N-(4-trifluoromethoxyphenyl)-N-(1H-imidazol-2-ylmethyl)amino]-2H-1-benzopyran], the “clinical symptoms” value is reported as “no significant changes”.
With `COc1ccc(N(Cc2ncc[nH]2)[C@@H]2c3cc(N)ccc3O[C@](C)(C(OC)OC)[C@H]2O)cc1` [Example 32, (2S,3S,4R)-6-amino-3,4-dihydro-2-dimethoxymethyl-3-hydroxy-2-methyl-4-[N-(4-methoxyphenyl)-N-(1H-imidazol-2-ylmethyl)amino]-2H-1-benzopyran] the “clinical symptoms” value was “no significant changes”.
In the case of `COC(OC)[C@@]1(C)Oc2ccc([N+](=O)[O-])cc2[C@@H](N(Cc2ncc[nH]2)c2ccc(F)cc2)[C@@H]1O` [Example 15, (2S,3S,4R)-3,4-dihydro-2-dimethoxymethyl-3-hydroxy-2-methyl-6-nitro-4-[N-(4-fluorophenyl)-N-(1H-imidazol-2-ylmethyl)amino]-2H-1-benzopyran], the “clinical symptoms” value is reported as “no significant changes”.
In the case of `COC(OC)[C@]1(C)Oc2ccc(N)cc2[C@H](N(Cc2ncc[nH]2)c2ccc(OC(F)(F)F)cc2)[C@H]1O` [Example 26, (2R,3R,4S)-6-amino-3,4-dihydro-2-dimethoxymethyl-3-hydroxy-2-methyl-4-[N-(4-trifluoromethoxyphenyl)-N-(1H-imidazol-2-ylmethyl)amino]-2H-1-benzopyran], the “clinical symptoms” value is reported as “no significant changes”.
For `COC(OC)[C@]1(C)Oc2ccc(N)cc2[C@H](N(Cc2ncc[nH]2)c2cccc(C)c2C)[C@H]1O` [Example 27, (2R,3R,4S)-6-amino-3,4-dihydro-2-dimethoxymethyl-3-hydroxy-2-methyl-4-[N-(2,3-dimethylphenyl)-N-(1H-imidazol-2-ylmethyl)amino]-2H-1-benzopyran], the “clinical symptoms” value was “no significant changes”.
In the case of `COC(OC)[C@@]1(C)Oc2ccc(N)cc2[C@@H](N(Cc2ncc[nH]2)c2ccccc2C(C)C)[C@@H]1O` [Example 34, (2S,3S,4R)-6-amino-3,4-dihydro-2-dimethoxymethyl-3-hydroxy-2-methyl-4-[N-(2-isopropylphenyl)-N-(1H-imidazol-2-ylmethyl)amino]-2H-1-benzopyran], the “clinical symptoms” value is reported as “no significant changes”.
For `COC(OC)[C@@]1(C)Oc2ccc(N)cc2[C@@H](N(Cc2ncc[nH]2)c2cccc(C)c2C)[C@@H]1O` [Example 30, (2S,3S,4R)-6-amino-3,4-dihydro-2-dimethoxymethyl-3-hydroxy-2-methyl-4-[N-(2,3-dimethylphenyl)-N-(1H-imidazol-2-ylmethyl)amino]-2H-1-benzopyran], the “clinical symptoms” value was “no significant changes”.
With `COC(OC)[C@@]1(C)Oc2ccc(N)cc2[C@@H](N(Cc2ncc[nH]2)c2ccc(OC(F)(F)F)cc2)[C@@H]1O` [Example 35, (2S,3S,4R)-6-amino-3,4-dihydro-2-dimethoxymethyl-3-hydroxy-2-methyl-4-[N-(4-trifluoromethoxyphenyl)-N-(1H-imidazol-2-ylmethyl)amino]-2H-1-benzopyran] the “clinical symptoms” value was “no significant changes”.
With `COC(OC)[C@@]1(C)Oc2ccc(N)cc2[C@@H](N(Cc2ncc[nH]2)c2ccc(F)cc2)[C@@H]1O` [Example 37, (2S,3S,4R)-6-amino-3,4-dihydro-2-dimethoxymethyl-3-hydroxy-2-methyl-4-[N-(4-fluorophenyl)-N-(1H-imidazol-2-ylmethyl)amino]-2H-1-benzopyran] the “clinical symptoms” value was “no significant changes”.
`COc1ccccc1N(Cc1ncc[nH]1)[C@@H]1c2cc(N)ccc2O[C@](C)(C(OC)OC)[C@H]1O` [Example 31, (2S,3S,4R)-6-amino-3,4-dihydro-2-dimethoxymethyl-3-hydroxy-2-methyl-4-[N-(2-methoxyphenyl)-N-(1H-imidazol-2-ylmethyl)amino]-2H-1-benzopyran] was tested, and the “clinical symptoms” value was “no significant changes”.
For `COC(OC)[C@]1(C)Oc2ccc([N+](=O)[O-])cc2[C@H](N(Cc2ncc[nH]2)c2cccc(Cl)c2)[C@H]1O` [Example 19, (2R,3R,4S)-3,4-dihydro-2-dimethoxymethyl-3-hydroxy-2-methyl-6-nitro-4-[N-(3-chlorophenyl)-N-(1H-imidazol-2-ylmethyl)amino]-2H-1-benzopyran], the “clinical symptoms” value was “no significant changes”.
With `COC(OC)[C@@]1(C)Oc2ccc(N)cc2[C@@H](N(Cc2ncc[nH]2)c2ccc(Br)cc2)[C@@H]1O` [Example 36, (2S,3S,4R)-6-amino-3,4-dihydro-2-dimethoxymethyl-3-hydroxy-2-methyl-4-[N-(4-bromophenyl)-N-(1H-imidazol-2-ylmethyl)amino]-2H-1-benzopyran] the “clinical symptoms” value was “no significant changes”.
With `COC(OC)[C@@]1(C)Oc2ccc([N+](=O)[O-])cc2[C@@H](N(Cc2ncc[nH]2)c2cccc(Cl)c2)[C@@H]1O` [Example 20, (2S,3S,4R)-3,4-dihydro-2-dimethoxymethyl-3-hydroxy-2-methyl-6-nitro-4-[N-(3-chlorophenyl)-N-(1H-imidazol-2-ylmethyl)amino]-2H-1-benzopyran] the “clinical symptoms” value was “no significant changes”.
With `COc1ccccc1N(Cc1ncc[nH]1)[C@H]1c2cc([N+](=O)[O-])ccc2O[C@@](C)(C(OC)OC)[C@@H]1O` [Example 18, (2R,3R,4S)-3,4-dihydro-2-dimethoxymethyl-3-hydroxy-2-methyl-6-nitro-4-[N-(2-methoxyphenyl)-N-(1H-imidazol-2-ylmethyl)amino]-2H-1-benzopyran] the “clinical symptoms” value was “no significant changes”.
With `COc1ccccc1N(Cc1ncc[nH]1)[C@@H]1c2cc([N+](=O)[O-])ccc2O[C@](C)(C(OC)OC)[C@H]1O` [Example 16, (2S,3S,4R)-3,4-dihydro-2-dimethoxymethyl-3-hydroxy-2-methyl-6-nitro-4-[N-(2-methoxyphenyl)-N-(1H-imidazol-2-ylmethyl)amino]-2H-1-benzopyran] the “clinical symptoms” value was “no significant changes”.

These molecules were tested on HUVECs (Human umbilical vein endothelial cells) (assay: Inhibitory effects on HUVEC tube formation). Details: 50 μM.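 Further: from minus no inhibition up to plus-plus-plus complete inhibition versus vehicle.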
Assay type: cell-based
Method: The Inhibitory effects of the compounds of the formula 1 on angiogenesis were meassured by the vascular tube formation assay of HUVECs (Human umbilical vein endothelial cells), which is one of the major angiogenic steps.
HUVECs were isolated from human umbilical vein, and cultured. HUVECs within passage 5 from confluent cultures were detached, and plated onto a layer of a bFGF (basic fibroblast growth factor)-reduced and polymerized Matrigel. Matrigel cultures were incubated with or without the compounds of formula 1, and the changes of cell morphology were captured through a phase contrast microscope and photographed.
With `COC(OC)[C@]1(C)Oc2ccc(N)cc2[C@H](N(Cc2ncc[nH]2)c2ccc(OC(F)(F)F)cc2)[C@H]1O` [Example 26, (2R,3R,4S)-6-amino-3,4-dihydro-2-dimethoxymethyl-3-hydroxy-2-methyl-4-[N-(4-trifluoromethoxyphenyl)-N-(1H-imidazol-2-ylmethyl)amino]-2H-1-benzopyran] the Tube formation was “+”.
With `COC(OC)[C@]1(C)Oc2ccc(N)cc2[C@H](N(Cc2ncc[nH]2)c2cccc(C)c2C)[C@H]1O` [Example 27, (2R,3R,4S)-6-amino-3,4-dihydro-2-dimethoxymethyl-3-hydroxy-2-methyl-4-[N-(2,3-dimethylphenyl)-N-(1H-imidazol-2-ylmethyl)amino]-2H-1-benzopyran] the Tube formation was “+/−”.
